Consider 14 compounds from ChEMBL document CHEMBL5550125, “Molecular basis of N-glycan recognition by pradimicin a and its potential as a SARS-CoV-2 entry inhibitor” (Bioorg Med Chem, 2024).

Calls of active or inactive are those of the source. The calls are words filed in the database; no cut-off is given here.

A short description of data set [1]: Binding affinity to Pradimicin A assessed as suppression of pradimicin A induced growth inhibition of Candida rugosa AJ14513 by measuring minimum antagonistic concentration measured after 48 hrs by visual analysis.
Data set [2] can be described thus: Induction of Pradimicin-FA1 aggregation assessed as concentration required to induce 50% aggregation incubated for 15 mins and further incubated for 30 mins at room temperature by RP-HPLC analysis.
Another data set has as its system Diutina rugosa. The data set is described as follows: Antifungal activity against Candida rugosa AJ14513 assessed as inhibition of fungal growth at 32 ug/ml measured after 48 hrs by visual analysis relative to control. The format is functional.
The subject of data set [3] is SARS-CoV-2. Nature of the data set: Antiviral activity against SARS-CoV-2 JPN/NGS/SC-1/2020 infected in human Calu-3 cells assessed as inhibition of viral infection pretreated with cells for 1 hr followed by viral infection and measured after 3 days by immunofluorescence analysis. The format is functional, organism-based. The settings on record: Severe acute respiratory syndrome coronavirus 2, JPN/NGS/SC-1/2020, Calu-3.

For data set [4], the system named is SARS-CoV-2. Nature of the data set: Antiviral activity against SARS-CoV-2 JPN/NGS/SC-1/2020 infected in human Calu-3 cells assessed as inhibition of viral infection at 6.25 uM pretreated with cells for 1 hr in presence of (2S,3S,4S,5R,6R)-4-(((2S,3R,4S,5S,6R)-3,4,5-trihydroxy-6-(hydroxymethyl)tetrahydro-2H-pyran-2-yl)oxy)-6-((((2S,3S,4S,5S,6R)-3,4,5-trihydroxy-6-(hydroxymethyl)tetrahydro-2H-pyran-2-yl)oxy)methyl)tetrahydro-2H-pyran-2,3,5-triol followed by viral infection and measured after 3 days by immunofluorescence analysis. As to conditions: Severe acute respiratory syndrome coronavirus 2, time 73.0 hrs. The format is functional, organism-based.

In data set [5] the test system is SARS-CoV-2. Nature of the data set: Antiviral activity against SARS-CoV-2 JPN/NGS/SC-1/2020 infected in human Calu-3 cells assessed as inhibition of viral infection at 6.25 uM pretreated with cells for 1 hr followed by viral infection and measured after 3 days by immunofluorescence analysis relative to control. The format is functional, Severe acute respiratory syndrome coronavirus 2. Set-up: scale not given: the % may be the effect or the level left. The settings on record: time 73 hrs.

In a further data set the test system is Calu-3. Nature of the data set: Cytotoxicity against human Calu-3 cells infected with SARS-CoV-2 JPN/NGS/SC-1/2020 assessed as reduction in cell viability at 0.3 to 100 uM pretreated with cells for 1 hr followed by viral infection and measured after 3 days. The settings on record: calu-3, 73 h, dose 0.3-100 µM. It is filed as toxicity, cell-based.
A short description of data set [6]: Binding affinity to Pradimicin A assessed as pradimicin A/Ca2+/compound ternary complex formation by measuring molar ratio at 50 umol incubated at 60 degreeC for 15 mins and room temperature for 1 hr in presence of CaCl2 and further incubated at 4 degreeC for 1 hr by coprecipitation based 1H-NMR analysis. As to conditions: dose 50.0 µmol, time 2.25 hrs.

The AC50 is the concentration giving half of the maximal activity seen. For `CO[C@H]1O[C@H](CO)[C@@H](O[C@@H]2O[C@H](CO)[C@H](OC)[C@H](O)[C@H]2NC(C)=O)[C@H](O)[C@@H]1NC(C)=O`, the MAC in data set [1] is more than 64 mM. Besides, in data set [2], the AC50 was more than 10 mM.
Usually inhibition stands for how much of the control response was suppressed. What is called IC50 is the concentration at which inhibition is half-maximal. In the case of `CN[C@@H]1[C@H](O[C@@H]2OC[C@@H](O)[C@H](O)[C@H]2O)[C@@H](O)[C@H](O[C@H]2c3cc(C)c(C(=O)N[C@H](C)C(=O)O)c(O)c3-c3c(cc4c(c3O)C(=O)c3cc(OC)cc(O)c3C4=O)[C@@H]2O)O[C@@H]1C` [PRADIMICIN A], the inhibition at 32 µg/mL in the data set with Diutina rugosa is 100%. For the same compound, the IC50 in the data set with SARS-CoV-2 [3] is 0.0012 mM. Further, the outcome in the data set on SARS-CoV-2 [4] was inactive. Also, the Activity in the data set on SARS-CoV-2 [5] is given as approximately 100%; with Calu-3 it was “Non-Toxic”.
As to `CO[C@H]1O[C@H](CO)[C@@H](O[C@@H]2O[C@H](CO)[C@H](O)[C@H](O)[C@H]2O)[C@H](O)[C@@H]1NC(C)=O`, the MAC in data set [1] is more than 64 mM. Also, in data set [2], the concentration at half-maximal activity (AC50) is more than 10 mM.
Turning to `CO[C@H]1O[C@H](CO)[C@@H](O)[C@H](O)[C@@H]1O`, the Ratio in data set [6] came out at 0.96. Moreover, in data set [1], the MAC stood at 16 mM. Also, the AC50 in data set [2] amounted to 5 mM.
On to `CO[C@H]1O[C@H](CO[C@H]2O[C@H](CO)[C@@H](O)[C@H](O)[C@@H]2O[C@H]2O[C@H](CO)[C@@H](O)[C@H](O)[C@@H]2O)[C@@H](O)[C@H](O[C@H]2O[C@H](CO)[C@H](O)[C@@H](O)[C@@H]2O[C@@H]2O[C@H](CO)[C@@H](O)[C@H](O)[C@H]2O)[C@@H]1O`, for which the MAC in data set [1] stood at 1 mM. For the same compound, the AC50 in data set [2] is 0.07 mM.
In the case of `CO[C@H]1O[C@H](CO)[C@@H](O)[C@H](O)[C@H]1O`, the Ratio in data set [6] worked out at 0.05.
With `CO[C@H]1O[C@H](CO[C@H]2O[C@H](CO)[C@@H](O)[C@H](O)[C@@H]2OC)[C@@H](O)[C@H](O[C@@H]2O[C@H](CO)[C@@H](O)[C@H](O)[C@H]2OC)[C@@H]1O`, the MAC in data set [1] was more than 64 mM. In addition, the AC50 in data set [2] was more than 10 mM.
The corresponding values for `CO[C@H]1O[C@H](CO[C@H]2O[C@H](CO)[C@@H](O)[C@H](O)[C@H]2O)[C@@H](O)[C@H](O[C@@H]2O[C@H](CO)[C@@H](O)[C@H](O)[C@H]2O)[C@@H]1O` are 16 mM and more than 10 mM.
On the same counts, the results for `CO[C@H]1O[C@H](CO)[C@@H](O)[C@H](O)[C@@H]1O[C@H]1O[C@H](CO)[C@@H](O)[C@H](O)[C@@H]1O` are 16 mM and more than 10 mM.
On the same counts, the results for `CO[C@@H]1O[C@H](CO[C@]2(C(=O)O)C[C@H](O)[C@@H](NC(C)=O)[C@H]([C@@H](O)[C@H](O)CO)O2)[C@H](O)[C@H](O)[C@H]1O` are more than 64 mM and more than 10 mM.
With `CO[C@H]1O[C@H](CO)[C@@H](O)[C@H](O)[C@@H]1O[C@@H]1O[C@H](CO)[C@@H](O)[C@H](O)[C@@H]1NC(C)=O`, in data set [1], the MAC is more than 64 mM. Moreover, the AC50 in data set [2] was more than 10 mM.
With `OC[C@H]1O[C@H](OC[C@H]2O[C@H](O)[C@@H](O)[C@@H](O[C@@H]3O[C@H](CO)[C@@H](O)[C@H](O)[C@H]3O)[C@@H]2O)[C@@H](O)[C@@H](O)[C@@H]1O`, the Ratio in data set [6] stood at 0.52. Moreover, the MAC in data set [1] stood at 1 mM. The concentration at half-maximal activity (AC50) in data set [2] was determined as 0.06 mM.
`CO[C@H]1O[C@H](CO)[C@@H](O)[C@H](O)[C@@H]1O[C@@H]1O[C@H](CO)[C@@H](OC)[C@H](O)[C@@H]1NC(C)=O`: the MAC in data set [1] was more than 64 mM. In addition, in data set [2], the AC50 was more than 10 mM.
On the same counts, the results for `CO[C@H]1O[C@H](CO[C@H]2O[C@H](CO)[C@@H](O)[C@H](O)[C@@H]2O)[C@@H](O)[C@H](O[C@@H]2O[C@H](CO)[C@@H](O)[C@H](O)[C@H]2O)[C@@H]1O` are 16 mM and more than 10 mM.
